Earlier results, collected in article PMC10265003 (Royal Society Open Science, 2023).

How the values were obtained:
[1] = system: MDA-MB-231 breast cancer cell line; conditions: cytotoxic effect; cited from earlier work
From the text: (§1) Solid-phase peptide synthesis has allowed chemical and structural modifications to be made to ACPs in order to enhance their activity and increase their resistance to proteolytic degradation.

[2] = system: MDA-MB-468 breast cancer cell line; conditions: cytotoxic effect; cited from earlier work
From the text: as §1

MCF-7 breast cancer line = conditions: cytotoxic effect against MCF-7 cells, not tested in this paper; cited from earlier work
From the text: Dimeric peptides derived from peptide ^26[F]: (RRWQWRFKKLG)2-K-Ahx were synthesized and characterized. The analogues with the highest synthetic viability in terms of purity and yield were ^26[1-Nal] and ^26[hF].

(^20RRWQWRMKKLG^30)2-K-Ahx [LfcinB (20–30)2]
IC50 [1]: 14 µM | IC50 [2]: 5 µM | IC50 (MCF-7 breast cancer line): ≥ 60 µM
